Columns and labels:
Assay in all cases: cells
8-MG-BA = type: functional, cell-based, Homo sapiens; conditions: Homo sapiens, 8-MG-BA;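 also: growth inhibition of 8-MG-BA cells, read out with a cell viability assay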
Description: SANGER: Inhibition of human 8-MG-BA cell growth in a cell viability assay.

RPMI-8866 = type: functional, cell-based, Homo sapiens; conditions: Homo sapiens, RPMI-8866
Description: SANGER: Inhibition of human RPMI-8866 cell growth in a cell viability assay.

NTERA-2-cl-D1 = type: functional, cell-based, Homo sapiens; conditions: Homo sapiens, NTERA-2-cl-D1;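 also: inhibition of cell growth, measured with a cell viability assay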
Description: SANGER: Inhibition of human NTERA-S-cl-D1 cell growth in a cell viability assay.

EOL1 = type: functional, cell-based, Homo sapiens; conditions: Homo sapiens, EOL1;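 also: growth inhibition of EoL-1 cells, read out by a cell viability assay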
Description: SANGER: Inhibition of human EoL-1-cell cell growth in a cell viability assay.

MZ1-PC = type: functional, cell-based, Homo sapiens; conditions: Homo sapiens, MZ1-PC;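 also: cell viability assay measuring growth inhibition of human MZ1-PC cells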
Description: SANGER: Inhibition of human MZ1-PC cell growth in a cell viability assay.

BE-13 = type: functional, cell-based, Homo sapiens; conditions: Homo sapiens, BE-13;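 also: growth inhibition of human BE-13 cells, measured with a cell viability assay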
Description: SANGER: Inhibition of human BE-13 cell growth in a cell viability assay.

RPMI-8226 = type: functional, cell-based, Homo sapiens; conditions: Homo sapiens, RPMI-8226
Description: SANGER: Inhibition of human RPMI-8226 cell growth in a cell viability assay.

JVM-3 = type: functional, cell-based, Homo sapiens; conditions: Homo sapiens, JVM-3;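 also: growth inhibition of human JVM-3 cells, read out with a cell viability assay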
Description: SANGER: Inhibition of human JVM-3 cell growth in a cell viability assay.

JAR = type: functional, cell-based, Homo sapiens; conditions: Homo sapiens, JAR;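 also: growth inhibition of human JAR cells determined with a cell viability assay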
Description: SANGER: Inhibition of human JAR cell growth in a cell viability assay.

NMC-G1 = type: functional, cell-based, Homo sapiens; conditions: Homo sapiens, NMC-G1;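 also: growth inhibition of the NMC-G1 cell line, measured with a cell viability read-out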
Description: SANGER: Inhibition of human NMC-G1 cell growth in a cell viability assay.

NCI-H1648 = type: functional, cell-based, Homo sapiens; conditions: Homo sapiens, NCI-H1648;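 also: cell viability assay measuring inhibition of NCI-H1648 cell growth, from the Sanger screening data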
Description: SANGER: Inhibition of human NCI-H1648 cell growth in a cell viability assay.

NB69 = type: functional, cell-based, Homo sapiens; conditions: Homo sapiens, NB69;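 also: growth inhibition of NB69 cells, determined by a cell viability assay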
Description: SANGER: Inhibition of human NB69 cell growth in a cell viability assay.

HOP-62 = type: functional, cell-based, Homo sapiens; conditions: Homo sapiens, HOP-62;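 also: cell growth inhibition determined with a viability assay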
Description: SANGER: Inhibition of human HOP-62 cell growth in a cell viability assay.

HEL = type: functional, cell-based, Homo sapiens; conditions: Homo sapiens, HEL;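 also: growth inhibition of HEL cells, read out with a cell viability assay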
Description: SANGER: Inhibition of human HEL cell growth in a cell viability assay.

NOMO-1 = type: functional, cell-based, Homo sapiens; conditions: Homo sapiens, NOMO-1;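 also: growth inhibition of human NOMO-1 cells measured by a cell viability assay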
Description: SANGER: Inhibition of human NOMO-1 cell growth in a cell viability assay.

KGN = type: functional, cell-based, Homo sapiens; conditions: Homo sapiens, KGN;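 also: growth inhibition of KGN cells, read out with a cell viability assay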
Description: SANGER: Inhibition of human KGN cell growth in a cell viability assay.

NCI-H1299 = type: functional, cell-based; conditions: Homo sapiens;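 also: growth inhibition of human NCI-H1299 cells, read out by a cell viability assay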
Description: SANGER: Inhibition of human NCI-H1299 cell growth in a cell viability assay.

RH-1 = type: functional, cell-based, Homo sapiens; conditions: Homo sapiens, RH-1;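 also: growth inhibition of human RH-1 cells, read out with a cell viability assay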
Description: SANGER: Inhibition of human RH-1 cell growth in a cell viability assay.

LS-1034 = type: functional, cell-based, Homo sapiens; conditions: Homo sapiens, LS-1034
Description: SANGER: Inhibition of human LS-1034 cell growth in a cell viability assay.

SF-126 = type: functional, cell-based, Homo sapiens; conditions: Homo sapiens, SF-126;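 also: growth inhibition of human SF126 cells, read out with a cell viability assay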
Description: SANGER: Inhibition of human SF126 cell growth in a cell viability assay.

D283 Med = type: functional, cell-based, Homo sapiens; conditions: Homo sapiens, D283 Med
Description: SANGER: Inhibition of human D-283MED cell growth in a cell viability assay.

HCE-4 = type: functional, cell-based; conditions: Homo sapiens;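 also: cell viability assay measuring inhibition of growth in the human HCE-4 cell line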
Description: SANGER: Inhibition of human HCE-4 cell growth in a cell viability assay.

CCRF-CEM = type: functional, cell-based, Homo sapiens; conditions: Homo sapiens, CCRF-CEM;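 also: inhibition of CCRF-CEM cell growth, measured by a cell viability assay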
Description: SANGER: Inhibition of human CCRF-CEM cell growth in a cell viability assay.

LU-139 = type: functional, cell-based, Homo sapiens; conditions: Homo sapiens, LU-139
Description: SANGER: Inhibition of human LU-139 cell growth in a cell viability assay.

ES1 = type: functional, cell-based, Homo sapiens; conditions: Homo sapiens, ES1;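 also: growth inhibition of ES1 cells, read out with a cell viability assay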
Description: SANGER: Inhibition of human ES1 cell growth in a cell viability assay.

SW 962 = type: functional, cell-based, Homo sapiens; conditions: Homo sapiens, SW 962;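 also: growth inhibition of human SW962 cells, read out by a cell viability assay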
Description: SANGER: Inhibition of human SW962 cell growth in a cell viability assay.

AM-38 = type: functional, cell-based, Homo sapiens; conditions: Homo sapiens, AM-38;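 also: growth inhibition of AM-38 cells of human origin, read out by a cell viability assay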
Description: SANGER: Inhibition of human AM-38 cell growth in a cell viability assay.

DSH1 = type: functional, cell-based; conditions: Homo sapiens;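 also: growth inhibition of human DSH1 cells, measured with a cell viability readout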
Description: SANGER: Inhibition of human DSH1 cell growth in a cell viability assay.

TGW = type: functional, cell-based, Homo sapiens; conditions: Homo sapiens, TGW;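 also: growth inhibition of human TGW cells, read out with a cell viability assay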
Description: SANGER: Inhibition of human TGW cell growth in a cell viability assay.

BT-474 = type: functional, cell-based, Homo sapiens; conditions: Homo sapiens, BT-474
Description: SANGER: Inhibition of human BT-474 cell growth in a cell viability assay.

LB2518-MEL = type: functional, cell-based; conditions: Homo sapiens;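 also: growth inhibition of human LB2518-MEL cells, measured with a cell viability assay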
Description: SANGER: Inhibition of human LB2518-MEL cell growth in a cell viability assay.

COLO-320-HSR = type: functional, cell-based, Homo sapiens; conditions: Homo sapiens, COLO-320-HSR;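 also: growth inhibition of COLO-320-HSR cells, determined with a cell viability assay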
Description: SANGER: Inhibition of human COLO-320-HSR cell growth in a cell viability assay.

A3-KAW = type: functional, cell-based, Homo sapiens; conditions: Homo sapiens, A3-KAW;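 also: growth inhibition of human A3-KAW cells, read out with a cell viability assay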
Description: SANGER: Inhibition of human A3-KAW cell growth in a cell viability assay.

NCI-H69 = type: functional, cell-based, Homo sapiens; conditions: Homo sapiens, NCI-H69;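 also: growth inhibition of the cell line, read out with a cell viability assay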
Description: SANGER: Inhibition of human NCI-H69 cell growth in a cell viability assay.

TE-9 = type: functional, cell-based, Homo sapiens; conditions: Homo sapiens, TE-9;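 also: cell growth inhibition, measured with a cell viability readout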
Description: SANGER: Inhibition of human TE-9 cell growth in a cell viability assay.

NCI-H1355 = type: functional, cell-based, Homo sapiens; conditions: Homo sapiens, NCI-H1355;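 also: growth inhibition of human NCI-H1355 cells, read out by a cell viability assay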
Description: SANGER: Inhibition of human NCI-H1355 cell growth in a cell viability assay.

SK-N-DZ = type: functional, cell-based, Homo sapiens; conditions: Homo sapiens, SK-N-DZ; read-out: IC50;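 also: growth inhibition of the cancer cell line, read out through a viability assay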
Description: SANGER: Inhibition of human SK-N-DZ cell growth in a cell viability assay.

SNU-C2B = type: functional, cell-based; conditions: Homo sapiens;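 also: cell viability readout used to measure compound-driven suppression of SNU-C2B cell proliferation, IC50 marking half-maximal growth inhibition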
Description: SANGER: Inhibition of human SNU-C2B cell growth in a cell viability assay.

MV4-11 = type: functional, cell-based, Homo sapiens, MV-4-11; conditions: Homo sapiens, MV4-11;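 also: cell viability readout measuring growth inhibition of human MV-4-11 cells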
Description: SANGER: Inhibition of human MV-4-11 cell growth in a cell viability assay.

SHP77 = type: functional, cell-based, Homo sapiens, SHP-77; conditions: Homo sapiens, SHP77;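 also: growth inhibition of human SHP-77 cells measured by a cell viability assay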
Description: SANGER: Inhibition of human SHP-77 cell growth in a cell viability assay.

SK-MEL-1 = type: functional, cell-based, Homo sapiens; conditions: Homo sapiens, SK-MEL-1;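 also: growth inhibition of human SK-MEL-1 cells, read out by a cell viability assay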
Description: SANGER: Inhibition of human SK-MEL-1 cell growth in a cell viability assay.

SW982 = type: functional, cell-based; conditions: Homo sapiens;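 also: growth inhibition of SW982 cells, read out with a cell viability assay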
Description: SANGER: Inhibition of human SW982 cell growth in a cell viability assay.

NB13 = type: functional, cell-based, Homo sapiens; conditions: Homo sapiens, NB13;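 also: cell viability readout measuring growth inhibition of human NB13 cells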
Description: SANGER: Inhibition of human NB13 cell growth in a cell viability assay.

SK-LMS-1 = type: functional, cell-based, Homo sapiens; conditions: Homo sapiens, SK-LMS-1;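 also: growth inhibition of human SK-LMS-1 cells, read out with a cell viability assay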
Description: SANGER: Inhibition of human SK-LMS-1 cell growth in a cell viability assay.

A388 = type: functional, cell-based; conditions: Homo sapiens;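 also: growth inhibition of human A388 cells, read out with a cell viability assay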
Description: SANGER: Inhibition of human A388 cell growth in a cell viability assay.

TE-8 = type: functional, cell-based, Homo sapiens; conditions: Homo sapiens, TE-8;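 also: growth inhibition of TE-8 cells, measured with a cell viability readout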
Description: SANGER: Inhibition of human TE-8 cell growth in a cell viability assay.

NEC8 = type: functional, cell-based, Homo sapiens; conditions: Homo sapiens, NEC8;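 also: growth inhibition of human NEC8 cells, read out by a cell viability assay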
Description: SANGER: Inhibition of human NEC8 cell growth in a cell viability assay.

MS-1 = type: functional, cell-based, Homo sapiens; conditions: Homo sapiens, MS-1
Description: SANGER: Inhibition of human MS-1 cell growth in a cell viability assay.

OCUB-M = type: functional, cell-based; conditions: Homo sapiens;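 also: growth inhibition of the cancer cell line, read out through a cell viability assay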
Description: SANGER: Inhibition of human OCUB-M cell growth in a cell viability assay.

SK-N-FI = type: functional, cell-based, Homo sapiens; conditions: Homo sapiens, SK-N-FI;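 also: cell viability assay measuring growth inhibition of human SK-N-FI cells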
Description: SANGER: Inhibition of human SK-N-FI cell growth in a cell viability assay.

`COc1ccc(-c2cc3nccn3c(Nc3ncccc3C(N)=O)n2)cc1OC` was tested, and the IC50 (8-MG-BA) was over 8 µM, the IC50 (RPMI-8866) was over 8 µM and the IC50 (NTERA-2-cl-D1) was 1.96 µM. The IC50 (EOL1) was 0.333 µM, the IC50 (MZ1-PC) was 3.49 µM and the IC50 (BE-13) was 2.7 µM. It also gave an IC50 (RPMI-8226) of over 8 µM, an IC50 (JVM-3) of over 8 µM and an IC50 (JAR) of over 8 µM. The IC50 (NMC-G1) was 7.55 µM, the IC50 (NCI-H1648) was over 8 µM and the IC50 (NB69) was over 8 µM. The IC50 (HOP-62) was 1.75 µM, the IC50 (HEL) was 1.35 µM and the IC50 (NOMO-1) was 7.38 µM. The IC50 (KGN) was 1.54 µM, the IC50 (NCI-H1299) was over 8 µM and the IC50 (RH-1) was 4.67 µM. The IC50 (LS-1034) was over 8 µM, the IC50 (SF-126) was over 8 µM and the IC50 (D283 Med) was over 8 µM. For the same compound, the IC50 (HCE-4) was 5.02 µM, the IC50 (CCRF-CEM) was 1.98 µM and the IC50 (LU-139) was over 8 µM. It also gave an IC50 (ES1) of 2.38 µM, an IC50 (SW 962) of over 8 µM and an IC50 (AM-38) of over 8 µM. It also gave an IC50 (DSH1) of over 8 µM, an IC50 (TGW) of over 8 µM and an IC50 (BT-474) of over 8 µM. It also gave an IC50 (LB2518-MEL) of over 8 µM, an IC50 (COLO-320-HSR) of 2.9 µM and an IC50 (A3-KAW) of 0.74 µM. For the same compound, the IC50 (NCI-H69) was over 8 µM, the IC50 (TE-9) was over 8 µM and the IC50 (NCI-H1355) was 3.49 µM. For the same compound, the IC50 (SK-N-DZ) was over 8 µM, the IC50 (SNU-C2B) was 1.84 µM and the IC50 (MV4-11) was under 0.0312 µM. The IC50 (SHP77) was over 8 µM, the IC50 (SK-MEL-1) was over 8 µM and the IC50 (SW982) was 0.775 µM. The IC50 (NB13) was 3.24 µM, the IC50 (SK-LMS-1) was over 8 µM and the IC50 (A388) was 5.95 µM. It also gave an IC50 (TE-8) of 2.43 µM, an IC50 (NEC8) of 7.77 µM and an IC50 (MS-1) of 7.7 µM. The IC50 (OCUB-M) was 4.11 µM and the IC50 (SK-N-FI) was over 8 µM.
With `OC[C@H](Cc1ccccc1)Nc1nc(Oc2ccc3c(c2)CCC3)nc2c1ncn2Cc1ccc(-c2ccccc2)cc1` the IC50 (8-MG-BA) was 3.54 µM, the IC50 (RPMI-8866) was over 10.2 µM and the IC50 (NTERA-2-cl-D1) was over 10.2 µM. The IC50 (EOL1) was 1.88 µM, the IC50 (MZ1-PC) was 6.97 µM and the IC50 (BE-13) was over 10.2 µM. The IC50 (RPMI-8226) was over 10.2 µM, the IC50 (JVM-3) was over 10.2 µM and the IC50 (JAR) was over 10.2 µM. For the same compound, the IC50 (NMC-G1) was over 10.2 µM, the IC50 (NCI-H1648) was over 10.2 µM and the IC50 (NB69) was over 10.2 µM. For the same compound, the IC50 (HOP-62) was 3.45 µM, the IC50 (HEL) was 3.28 µM and the IC50 (NOMO-1) was over 10.2 µM. For the same compound, the IC50 (KGN) was over 10.2 µM, the IC50 (NCI-H1299) was over 10.2 µM and the IC50 (RH-1) was 5.29 µM. It also gave an IC50 (LS-1034) of over 10.2 µM, an IC50 (SF-126) of over 10.2 µM and an IC50 (D283 Med) of over 10.2 µM. It also gave an IC50 (HCE-4) of 7.47 µM, an IC50 (CCRF-CEM) of 5.76 µM and an IC50 (LU-139) of over 10.2 µM. The IC50 (ES1) was 1.38 µM, the IC50 (SW 962) was over 10.2 µM and the IC50 (AM-38) was over 10.2 µM. For the same compound, the IC50 (DSH1) was 6.82 µM, the IC50 (TGW) was over 10.2 µM and the IC50 (BT-474) was over 10.2 µM. The IC50 (LB2518-MEL) was over 10.2 µM, the IC50 (COLO-320-HSR) was over 10.2 µM and the IC50 (A3-KAW) was 7.38 µM. The IC50 (NCI-H69) was over 10.2 µM, the IC50 (TE-9) was over 10.2 µM and the IC50 (NCI-H1355) was over 10.2 µM. It also gave an IC50 (SK-N-DZ) of 2.23 µM, an IC50 (SNU-C2B) of over 10.2 µM and an IC50 (MV4-11) of 5.51 µM. The IC50 (SHP77) was over 10.2 µM, the IC50 (SK-MEL-1) was over 10.2 µM and the IC50 (SW982) was over 10.2 µM. The IC50 (NB13) was 8.09 µM, the IC50 (SK-LMS-1) was 2.94 µM and the IC50 (A388) was over 10.2 µM. For the same compound, the IC50 (TE-8) was 3.17 µM, the IC50 (NEC8) was over 10.2 µM and the IC50 (MS-1) was over 10.2 µM. The IC50 (OCUB-M) was 3.68 µM and the IC50 (SK-N-FI) was over 10.2 µM.
